Converted amounts (≈) assume the structure as drawn.

For data set [1], the system named is Pneumocystis carinii. The data set can be described thus: Prevention of Pneumocystis carinii infection in immunosuppressed rats. To be noted: 125 mg/kg daily. The data set is classed as in vivo.
Experimental: In this method rats are immunosuppressed with high doses of glucocorticosteroids while being protected from bacterial infection by concurrent administration of the antibiotic tetracycline. In a standard evaluation animals are immunosuppressed with steroids and various doses of test compounds are administered for six weeks during which time unprotected animals will develop pneumocystis pneumonitis. The percentage of animals free of the disease represents the effectiveness of a selected dose of test drug.
A customary method to produce pneumocystis in the animals is to administer 2 mg of dexamethasone and 50 mg tetracycline hydrochloride per liter of drinking water. The test compounds are integrated in the food.
Data set [2] relates to Pneumocystis carinii. The following applies: 125 mg/kg; cited from earlier work.
Another data set has as its system M. avium (MAC). The data set can be described thus: Broth dilution MIC against Mycobacterium avium complex isolates. The following applies: 168 h. Type of data set: cell-based. The method, then:
(§1) Testing of new drugs for activity against Mycobacterial infections is carried out in vitro and in vivo in well defined laboratory procedures which have been widely published. The method used to test for biological activity against growing Mycobacterium avium complex (MAC), Mycobacterium tuberculosis (MTB) and Mycobacterium kanasii (MK) are described by A. H. Gonzalez et al. in J. Antimicrob. Chemother. 1989, 24:19-22; S. Majumder and M. H. Cynamon, Amer. Soc. for Microbiology Mtgs, U-4, May 1992, abstract.
(§2) Activity in vitro was determined against clinical isolates of MAC, MTB and MK using a broth dilution method. Mycobacteria were grown for several days in 7H10 broth, ph 6.6, with 10% OADC enrichment and 0.05% Tween 80. Serial two-fold dilutions of antimicrobial drugs were prepared in 7H10 broth at 128 μg/ml and less. Cultures containing a final concentration of approximately 2.5×10^4 to 6.3×10^5 CFU/ml were incubated on a rotary shaker at 37° C. for 7 days and read where the minimum inhibitory concentration was defined as the MIC at the lowest concentration without visual turbidity. JPC7766 in these studies was compared to known active antimicrobial drugs Proguanil (PG), Cycloguanil (CG), Sulfamethazine (SM) and/or Dapsone (DDS).

Another data set relates to M. kanasii (MK). The data set can be described thus: Broth dilution MIC against M. kanasii isolate. The data set is classed as cell-based. The following applies: 168 h. The protocol: as §1, §2
The subject of a further data set is M. tuberculosis (MTB). The data set can be described thus: Broth dilution MIC against M. tuberculosis isolates. The data set is classed as cell-based. The following applies: Mycobacterium tuberculosis, 168 h. The method, then:
as §1, §2

The next data set deals with P. berghei. The experiment in a line: P. berghei infection in mice, injected vs. oral doses, 50% cure (Table 2). The text has this: Comparative tests in vivo in mice against Plasmodium have been carried out. […] Premature deaths of animals (earlier than five days post infection) are considered as indications of toxicity.
These tests systems are described in detail in publications by L. Rane and D. S. Rane, 9th Int. […] Trop. Med. Malaria. (1973) 1:281 (#406) and (2) T. S. Osdedne, P. B. Russell and L. Rane, J. Med. Chem. 1967. 10:431.
In this methodology, groups of 5 or 10 mice are infected with a standard inoculum of a blood-induced P. berghei infection and are treated with a single subcutaneous dose ([…]) of test drug suspended in peanut oil or a single oral dose of test drug suspended in hexamethyl cellulose and Tween. The animals are then observed for a maximum of thirty days. […] Animals surviving for thirty days are considered cured.

With `Nc1ccc(S(=O)(=O)c2ccc(N)cc2)cc1` [Dapsone], the Efficacy in the data set on Pneumocystis carinii [1] was 100%. Also, the “# infected” value with Pneumocystis carinii [1] (infected/treated) is 0/10. The protection from pneumocystis result in the data set on Pneumocystis carinii [2] is on record as “fully effective”. Moreover, the minimum inhibitory concentration (MIC) against M. avium (MAC) (isolate MAC 101) stood at 16 µg/mL (≈ 64.4 µM); with M. avium (MAC) (isolate MAC FAR) it was 64 µg/mL (≈ 258 µM); against M. avium (MAC) (isolate MAC LPR), 32 µg/mL (≈ 129 µM).

`Cc1cc(C)nc(NS(=O)(=O)c2ccc(N)cc2)n1` [Sulfamethazine]: the minimum inhibitory concentration (MIC) was 64 µg/mL (≈ 230 µM) in the data set on M. kanasii (MK); 64 µg/mL (≈ 230 µM) against M. tuberculosis (MTB) (isolate MTB 311); 64 µg/mL (≈ 230 µM) against M. tuberculosis (MTB) (H37RV, isolate MTB H37 Rv); above 128 µg/mL against M. avium (MAC) (isolate MAC 101); 16 µg/mL (≈ 57.5 µM) in the data set with M. avium (MAC) (isolate MAC FAR); 32 µg/mL (≈ 115 µM) in the data set on M. avium (MAC) (isolate MAC LPR).

With `CC1(C)N=C(N)N=C(N)N1OCCCOc1cc(Cl)c(Cl)cc1Cl` [WR99210], in the data set with P. berghei (Plasmodium berghei, in Mus musculus, sc, read-out: 50% cure, injected SQ ED-50), the ED50 is 245 mg/kg. The Cures result in the data set on P. berghei (oral (PO), @ 640 mg/kg) is listed as “No Cures”.

For `CC1(C)N=C(N)N=C(N)N1c1ccc(Cl)cc1` [Cycloguanil], the MIC against M. kanasii (MK) is 64 µg/mL (≈ 254 µM); in the data set on M. tuberculosis (MTB) (isolate MTB 311) it was 64 µg/mL (≈ 254 µM); against M. tuberculosis (MTB) (H37RV, isolate MTB H37 Rv), 64 µg/mL (≈ 254 µM); against M. avium (MAC) (isolate MAC LPR), above 128 µg/mL.

`[H]/N=C(\N/C(=N/[H])Nc1ccc(Cl)cc1)NC(C)C` [Proguanil]: the Toxicity entry with P. berghei (oral (PO), @ >160 mg/kg) is listed as “Toxic”. The “50% cures; oral PO ED-50” value with P. berghei (single oral dose) is “No Cures”. In the data set with P. berghei (subcutaneous, in peanut oil), the “50% cure; injected SQ ED-50” value is on record as “NO CURES”. Also, the values for the minimal inhibitory concentration (MIC) in the data set with M. avium (MAC) (isolate MAC 101), in the data set with M. avium (MAC) (isolate MAC FAR) and in the data set on M. avium (MAC) (isolate MAC LPR) were above 128 µg/mL, 64 µg/mL (≈ 252 µM) and 128 µg/mL (≈ 504 µM), respectively.

Source of the values: patent US5322858A, “N,N'-substituted imidodicarbonimidic diamides derived from hydroxylamines” (Jacobus Pharmaceutical Co. Inc., priority 1992, dated 1994).
